These are literature values, as cited in US10022348B2, “Topical solution of isotretinoin” (SUN PHARMACEUTICAL INDUSTRIES LIMITED, priority 2009, dated 2018).

The data set has as its system patients with severe acne. As to conditions: oral.

`CC1=C(/C=C/C(C)=C/C=C/C(C)=C\C(=O)O)C(C)(C)CCC1` [isotretinoin, 13-cis retinoic acid]: the long-term remission entry is reported as “about 80 % of patients”.
